Source: ChEMBL document CHEMBL1201862, “PubChem BioAssay data set” (2004)
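1) Cells in 96-well plates. 2) Compound, 48 h, 5 concentrations. 3) Linear interpolation between surrounding doses. 4) Unreached endpoint = highest concentration. GI50 is the concentration that inhibits growth by half.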 Calls of active or inactive are those of the source. Cut-off read from the data, not from the text of the source: active = GI50 up to about 1.1 µM and inactive = higher.

How the values were obtained:
Assay in all cases: NCI tumour cell line growth inhibition, 48 h
SNB-75 = test system: SNB-75
786-0 = test system: 786-0
HCC 2998 = test system: HCC 2998
TK-10 = test system: TK-10
HOP-62 = test system: HOP-62
OVCAR-8 = test system: OVCAR-8
SF-268 = test system: SF-268
SK-MEL-28 = test system: SK-MEL-28
HT-29 = test system: HT-29
OVCAR-4 = test system: OVCAR-4
RXF 393 = test system: RXF 393
MDA-MB-231 = test system: MDA-MB-231
IGROV-1 = test system: IGROV-1
SK-MEL-5 = test system: SK-MEL-5
K562 = test system: K562
DU-145 = test system: DU-145
SNB-19 = test system: SNB-19
Malme-3M = test system: Malme-3M
COLO 205 = test system: COLO 205
T47D = test system: T47D

Measured: GI50

O=C(O)c1nc2ccc(C(F)(F)F)cc2nc1Nc1ccc(Cl)c(Cl)c1
inactive: SNB-75 13.2 µM | 786-0 10.5 µM | HCC 2998 4.99 µM | TK-10 20 µM | HOP-62 7.85 µM | OVCAR-8 4.91 µM | SF-268 4.46 µM | SK-MEL-28 13 µM | HT-29 9.16 µM | OVCAR-4 6.98 µM | RXF 393 13.4 µM | MDA-MB-231 6.05 µM | IGROV-1 12.8 µM | SK-MEL-5 10.6 µM | K562 3.66 µM | DU-145 9.68 µM | SNB-19 2.16 µM | Malme-3M 13.3 µM | COLO 205 11.6 µM

CCOP(=O)(OCC)C(Nc1ccc(F)cc1)c1cccc([N+](=O)[O-])c1 (stereo unspecified)
inactive: SNB-75 > 100 µM | 786-0 > 10 µM | HCC 2998 71.6 µM | TK-10 > 100 µM | HOP-62 > 100 µM | OVCAR-8 97.9 µM | SF-268 > 100 µM | SK-MEL-28 > 100 µM | HT-29 74.6 µM | OVCAR-4 57.4 µM | RXF 393 54.3 µM | MDA-MB-231 71.9 µM | IGROV-1 78.9 µM | SK-MEL-5 83.9 µM | K562 38.9 µM | DU-145 > 100 µM | SNB-19 > 100 µM | Malme-3M 83.8 µM | COLO 205 70.5 µM

C/C(=C(/C)c1ccc(O)cc1)c1ccc(O)cc1 [DIMETHYLSTILBESTROL]
inactive: SNB-75 39.2 µM | 786-0 61.9 µM | HCC 2998 > 100 µM | TK-10 89.5 µM | HOP-62 94 µM | OVCAR-8 36.1 µM | SF-268 > 100 µM | HT-29 48.8 µM | OVCAR-4 > 10 µM | RXF 393 56.8 µM | MDA-MB-231 > 100 µM | IGROV-1 > 100 µM | SK-MEL-5 19.5 µM | K562 46 µM | DU-145 87.3 µM | SNB-19 > 100 µM | Malme-3M 60.8 µM | COLO 205 > 100 µM

CC12CCCC(C(=O)O)(C1)[C@H](C(C)(C)C(=O)O)CC2 (stereo partly specified)
inactive: SNB-75 > 100 µM | 786-0 > 100 µM | TK-10 > 100 µM | HOP-62 > 100 µM | OVCAR-8 > 100 µM | SF-268 > 100 µM | SK-MEL-28 > 100 µM | HT-29 > 100 µM | OVCAR-4 > 100 µM | IGROV-1 > 100 µM | SK-MEL-5 > 100 µM | K562 > 100 µM | DU-145 > 100 µM | T47D > 100 µM | SNB-19 > 100 µM | Malme-3M > 100 µM | COLO 205 > 100 µM

C=C(C)C1CC2C(C)=C(OC(C)=O)C1n1c(=O)c3cc4ccccc4cc3c(=O)n12 (stereo unspecified)
inactive: SNB-75 42 µM | 786-0 > 95.5 µM | HCC 2998 70.8 µM | TK-10 > 100 µM | HOP-62 > 100 µM | OVCAR-8 > 68.7 µM | SF-268 81.3 µM | SK-MEL-28 > 100 µM | HT-29 > 80.9 µM | OVCAR-4 73.3 µM | RXF 393 24.2 µM | IGROV-1 > 77.1 µM | SK-MEL-5 87.3 µM | K562 46.2 µM | SNB-19 > 100 µM | Malme-3M > 89.3 µM | COLO 205 > 100 µM

COc1cc2c(cc1C)NC(=O)/C2=C/c1cccnc1
inactive: SNB-75 45 µM | 786-0 16 µM | HCC 2998 2.34 µM | TK-10 11.9 µM | HOP-62 11.7 µM | OVCAR-8 14.6 µM | SF-268 15.6 µM | SK-MEL-28 45.9 µM | HT-29 17.7 µM | OVCAR-4 26.1 µM | RXF 393 7.8 µM | SK-MEL-5 11 µM | K562 5.31 µM | DU-145 12.3 µM | T47D 2.84 µM | SNB-19 11.7 µM | Malme-3M 16.4 µM | COLO 205 15.6 µM

Cc1n[nH]c(=O)n1/N=C/c1ccc(Cl)cc1
inactive: SNB-75 41.2 µM | 786-0 > 100 µM | HCC 2998 > 100 µM | HOP-62 32.5 µM | OVCAR-8 83.6 µM | SF-268 44.9 µM | SK-MEL-28 > 100 µM | OVCAR-4 98.4 µM | RXF 393 22.3 µM | K562 > 100 µM | DU-145 47.2 µM | T47D 35.6 µM | SNB-19 61.9 µM | COLO 205 43.3 µM

CCOC(=O)C1(C)CCC(C(=O)OC)C1=O (stereo unspecified)
inactive: SNB-75 > 100 µM | 786-0 > 100 µM | HCC 2998 75.3 µM | TK-10 > 100 µM | HOP-62 > 100 µM | OVCAR-8 > 100 µM | SF-268 > 100 µM | SK-MEL-28 > 100 µM | HT-29 65.5 µM | OVCAR-4 > 100 µM | RXF 393 > 100 µM | IGROV-1 > 100 µM | SK-MEL-5 > 100 µM | K562 32.8 µM | SNB-19 > 100 µM | Malme-3M > 100 µM | COLO 205 44.1 µM

CCOP(=O)(OCC)C(Cc1ccccc1)N=C(c1ccccc1)c1ccccc1 (stereo unspecified)
inactive: SNB-75 11.5 µM | 786-0 15.2 µM | TK-10 11.5 µM | HOP-62 17.6 µM | OVCAR-8 16.3 µM | SF-268 17.8 µM | SK-MEL-28 17 µM | HT-29 13.1 µM | OVCAR-4 16.2 µM | IGROV-1 13.9 µM | SK-MEL-5 12.9 µM | K562 7.29 µM | DU-145 20.9 µM | T47D 6.97 µM | SNB-19 14.6 µM | Malme-3M 20.6 µM | COLO 205 14.3 µM

O=C(CCCn1ccnc1[N+](=O)[O-])NCCn1ccnc1[N+](=O)[O-]
inactive: SNB-75 > 100 µM | 786-0 > 100 µM | HCC 2998 > 100 µM | TK-10 > 100 µM | HOP-62 > 100 µM | OVCAR-8 > 100 µM | SF-268 > 100 µM | SK-MEL-28 > 100 µM | HT-29 > 100 µM | OVCAR-4 > 100 µM | IGROV-1 > 100 µM | SK-MEL-5 > 100 µM | K562 > 100 µM | DU-145 > 100 µM | T47D > 100 µM | SNB-19 > 100 µM | Malme-3M > 100 µM | COLO 205 > 100 µM

Fc1ccc(C2NC(=S)NC3=C2CCOc2c3ccc3ccccc23)cc1 (stereo unspecified)
inactive: SNB-75 13.6 µM | 786-0 33 µM | HCC 2998 22.6 µM | TK-10 44.9 µM | HOP-62 64.9 µM | OVCAR-8 > 100 µM | SF-268 45.1 µM | OVCAR-4 24.7 µM | RXF 393 14.8 µM | IGROV-1 47.1 µM | SK-MEL-5 11.3 µM | K562 3.39 µM | DU-145 > 100 µM | T47D 2.7 µM | SNB-19 55.1 µM | Malme-3M 17.4 µM | COLO 205 6.67 µM
